The values that follow come from patent US12680102B2, “miRNAS for reducing ventricle enlargement” (St. Jude Children's Research Hospital, Inc., priority 2019, dated 2026).

One series deals with T1, Drd1 (Mus musculus, UniProt Q61616).
T1 construct: coronal brain sections (300-μm) were collected in L-15 Leibovitz media; from tissue; host or cells: acute coronal mouse brain slices (300 µm); ciliated ependymal cells of the lateral ventricle wall; WT and Dgcr8+/- mice
Nature of the series: Ex vivo ciliary beating frequency (CBF) in brain slices, Drd1 agonist/antagonist bath-applied. The class given is cell-based. To be noted: SKF81297 10 μM bath-applied, slices from 4- to 5-month-old WT mice, vs vehicle (DMSO).

In series [1] the test system is luciferase reporter encoding miRNA sponge. Nature of the series: Luciferase assay validating miRNA sponges in Neuro 2a cells. It is filed as cell-based, mouse. To be noted: pGIPZ vector encoding the miRNA vs control pGIPZ. An excerpt: FIGS. 13A-13B. Validation of the miRNA Sponges, Related to FIGS. 6A-6H. (FIG. 13A) Luciferase activity measured in Neuro 2a cells transfected with luciferase reporter vector alone, luciferase reporter vector encoding miR-382-3p sponges (two-tailed Student's t-test; t4=1.62, p=0.18) containing two (t4=23.00, *p<0.001), four (t4=24.35, *p<0.001), or six (t4=9.17, *p<0.001) miRNA-binding sites or scrambled sites (t4=2.36, p=0.08) in the presence of control pGIPZ vector or pGIPZ vector encoding miR-382-3p. Based on these experiments, the miR-382-3p sponge with six seed sites was chosen for in vivo experiments. (FIG. 13B) Luciferase activity in Neuro2a cells transfected with luciferase reporter vector alone, luciferase reporter vector encoding miR-674-3p sponges (t4=14.13, *p<0.001) containing two (t4=14.25, *p<0.001), four (t4=80.70, *p<0.001), or six miRNA-binding sites (t4=26.67, *p<0.001), or scrambled (t4=1.11, p=0.33) sites in the presence of control pGIPZ vector or pGIPZ vector encoding miR-674-3p. Data are shown as the mean±S.E.M.
Generation of miRNA Sponge Constructs. The miR-382-3p and miR-674-3p sponges were generated as described previously (Chun et al., 2017). […]

T1 sequence (Q61616 whole entry): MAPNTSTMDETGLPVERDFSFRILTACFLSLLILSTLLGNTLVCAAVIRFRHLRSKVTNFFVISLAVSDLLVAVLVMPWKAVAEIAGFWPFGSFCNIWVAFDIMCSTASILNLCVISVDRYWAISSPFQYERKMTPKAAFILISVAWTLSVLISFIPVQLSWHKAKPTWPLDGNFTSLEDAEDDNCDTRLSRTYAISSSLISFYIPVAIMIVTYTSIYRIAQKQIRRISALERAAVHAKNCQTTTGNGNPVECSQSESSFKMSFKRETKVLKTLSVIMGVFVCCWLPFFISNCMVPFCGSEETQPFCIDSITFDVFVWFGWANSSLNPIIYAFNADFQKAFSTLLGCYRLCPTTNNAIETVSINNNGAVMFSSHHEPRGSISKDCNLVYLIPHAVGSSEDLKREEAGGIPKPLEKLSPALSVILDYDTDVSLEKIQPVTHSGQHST
Description for Drd1: Ex Vivo Ciliary Beating Frequency Measurements. For ex vivo measurement of CBF, coronal brain sections (300-μm) were collected in L-15 Leibovitz media (Thermo Fisher Scientific) and placed in 37° C., 95%/5% O2/CO2 chamber. Image sequences of CBF were acquired by linescan analysis using an LD C-Apochromat 40× objective water-immersion lens (1.1 NA) in LSM780 confocal microscope (Zeiss AxioObserver). Slices were scanned through a line perpendicular to the axis of the cilia in the Xt mode along this line with an acquisition rate of 529 frames/second (512×1 frame size, 1.89-ms scan time, 5,000 cycles). Transmitted DIC and fluorescence emitted by GFP or Alexa Fluor 488 were collected with a 488- to 568-nm bandpass filter. Fluorescence excitation and transmitted illumination were provided by a 488-nm argon gas laser. The Drd1 agonist (SKF81297, 10 μM; Tocris, Minneapolis, MN) and antagonist (SCH23390, 10 μM; Tocris) were bath-applied once per slice. Five minutes after the agonist or antagonist was applied, the CBF was measured.

For the molecule `Oc1cc2c(c(Cl)c1O)CCNCC2c1ccccc1` (centres unmarked) [SKF81297], the “ependymal CBF” value on Drd1 is on record as “slowed ependymal CBF compared to vehicle treatment”.

As to “miR-674-3p: mature mouse miRNA CACAGCUCCCAUCUCAGAACAA (SEQ ID NO: 3); in FIG. 13 expressed from pGIPZ vector (listed as Mus musculus)”, the “inhibition of reporters containing the sponge sequence (luciferase activity)” value in series [1] is on record as “effectively inhibited reporters containing the sponge sequence in vitro”.
